Assay in all cases: relative viability (nuclei count vs DMSO), 5 days (fraction); higher = more cells survive
Compound in assay [1]: CC1=C(C(=NN1)C)CC2=C(C3=C(S2)N(C(=O)N(C3=O)C)CC(C)C)C(=O)N4C[C@@H](CO4)O + CS(=O)(=O)CCNCc1ccc(-c2ccc3ncnc(Nc4ccc(OCc5cccc(F)c5)c(Cl)c4)c3c2)o1 [Lapatinib] (partner 2 µM)
The method, boiled down: (§1)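 Medians of duplicate plates are given as relative viability. That measure is the nuclei count in treated wells divided by the count in vehicle wells. Counts were taken on 4× images of lung cancer cell lines in 1536-well plates, 5 days after pin-tool dosing the day after seeding with one drug alone or a fixed anchor-drug dose plus five library-drug doses (not always all listed) in √10 steps.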

Compound in the assay “IDH-C35 + Navitoclax”: Cc1ccccc1C(C(=O)NC1CCCCC1)N(C(=O)Cn1ccnc1C)c1cccc(F)c1 [IDH-C35] + CC1(C)CCC(c2ccc(Cl)cc2)=C(CN2CCN(c3ccc(C(=O)NS(=O)(=O)c4ccc(N[C@H](CCN5CCOCC5)CSc5ccccc5)c(S(=O)(=O)C(F)(F)F)c4)cc3)CC2)C1 [Navitoclax] (partner 0.5 µM)
The method, boiled down:
as §1

Compound in the assay “IDH-C35 + Pictilisib”: Cc1ccccc1C(C(=O)NC1CCCCC1)N(C(=O)Cn1ccnc1C)c1cccc(F)c1 [IDH-C35] + CS(=O)(=O)N1CCN(Cc2cc3nc(-c4cccc5[nH]ncc45)nc(N4CCOCC4)c3s2)CC1 [Pictilisib] (partner 1 µM)
An outline of the steps: as §1

Compound in the assay “IDH-C35 + Pemetrexed”: Cc1ccccc1C(C(=O)NC1CCCCC1)N(C(=O)Cn1ccnc1C)c1cccc(F)c1 [IDH-C35] + Nc1nc2[nH]cc(CCc3ccc(C(=O)N[C@@H](CCC(=O)O)C(=O)O)cc3)c2c(=O)[nH]1 [Pemetrexed] (partner 0.2 µM)
The method, boiled down:
as §1

As for UMC-11, the relative viability in assay [1] (first compound 0.0025 µM) amounted to 1.12; in assay [1] (first compound 0.007906 µM) it was 1.03; in assay [1] (first compound 0.025 µM), 0.957; in assay [1] (first compound 0.07906 µM) it was 1.01; in assay [1] (first compound 0.25 µM), 1.05; in the assay with IDH-C35 + Navitoclax (first compound 0.08 µM), 0.298. Besides, the relative viability in the assay with IDH-C35 + Navitoclax (first compound 0.253 µM) worked out at 0.347; in the assay with IDH-C35 + Navitoclax (first compound 0.8 µM) it was 0.323; with IDH-C35 + Navitoclax (first compound 2.53 µM) it was 0.32; with IDH-C35 + Navitoclax (first compound 8 µM), 0.344; with IDH-C35 + Pictilisib (first compound 0.08 µM), 0.874; with IDH-C35 + Pictilisib (first compound 0.253 µM), 0.794. Moreover, the relative viability in the assay with IDH-C35 + Pictilisib (first compound 0.8 µM) was determined as 0.759; with IDH-C35 + Pictilisib (first compound 2.53 µM) it was 0.79; with IDH-C35 + Pictilisib (first compound 8 µM), 0.889; in the assay with IDH-C35 + Pemetrexed (first compound 0.08 µM) it was 0.811; in the assay with IDH-C35 + Pemetrexed (first compound 0.253 µM) it was 0.915; with IDH-C35 + Pemetrexed (first compound 0.8 µM), 0.804. Moreover, the relative viability was found to be 0.853 with IDH-C35 + Pemetrexed (first compound 2.53 µM) and 0.88 in the assay with IDH-C35 + Pemetrexed (first compound 8 µM).
